Read-outs that look alike come from different tables or passages of the source.
Tests used:
OATP1B1 = biological target: T1, OATP1B1 (Homo sapiens, UniProt Q9Y6L6); test: OATP1B1-mediated pyranine uptake in overexpressing A431 cells; assay type: cell-based
T1 construct: expressed in transfected cells; host or cells: A431
T1 sequence (Q9Y6L6 1-691): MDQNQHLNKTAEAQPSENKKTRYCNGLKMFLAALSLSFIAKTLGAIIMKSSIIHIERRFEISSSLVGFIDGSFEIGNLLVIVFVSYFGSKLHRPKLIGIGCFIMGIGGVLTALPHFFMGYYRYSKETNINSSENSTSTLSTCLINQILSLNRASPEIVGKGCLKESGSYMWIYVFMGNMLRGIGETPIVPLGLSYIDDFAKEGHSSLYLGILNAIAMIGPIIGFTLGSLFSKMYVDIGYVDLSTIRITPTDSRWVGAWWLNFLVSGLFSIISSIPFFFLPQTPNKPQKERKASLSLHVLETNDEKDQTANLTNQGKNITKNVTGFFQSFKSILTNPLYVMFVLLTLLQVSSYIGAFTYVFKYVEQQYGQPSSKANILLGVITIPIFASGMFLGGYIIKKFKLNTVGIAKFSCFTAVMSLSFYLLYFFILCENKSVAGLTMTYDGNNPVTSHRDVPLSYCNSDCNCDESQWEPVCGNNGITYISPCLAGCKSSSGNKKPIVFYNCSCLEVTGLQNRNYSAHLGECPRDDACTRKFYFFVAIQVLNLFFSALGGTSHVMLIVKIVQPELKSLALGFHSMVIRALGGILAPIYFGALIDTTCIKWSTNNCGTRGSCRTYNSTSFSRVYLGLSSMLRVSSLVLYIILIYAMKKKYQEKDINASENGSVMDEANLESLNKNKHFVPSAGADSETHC
Description: (§1) The human epidermoid carcinoma cell (A431) overexpressing OATP1A2, OATP1B1, OATP1B3, or OATP2B1 transporters and their mock control cells were generated previously as described. , Cell culture was maintained in DMEM supplemented with 10% fetal bovine serum, 2 mM L-glutamine, 100 units/mL penicillin, and 100 μg/mL streptomycin at 37 °C and 5% CO2.
(§2) The inhibitory effects of mycotoxins (Z14S and Z14GA) were examined using indirect fluorescence assays, where pyranine and SR101 were used as fluorescent substrates. , A431 cells overexpressing OATP1A2, OATP1B1/3, or OATP2B1 and their mock-transfected controls were seeded at a density of 8 × 10^4 cells/well onto 96-well plates and incubated for 18–22 h prior to transport measurements. The next day, plated cells were washed three times with 200 μL of PBS (phosphate-buffered saline, pH 7.4) and preincubated with 50 μL of transport buffer (pH 5.5; 125 mM NaCl, 4.8 mM KCl, 1.2 mM CaCl2, 1.2 mM KH2PO4, 12 mM MgSO4, 25 mM MES, and 5.6 mM glucose) with or without increasing concentrations of the mycotoxins tested (0.001–20 μM) for 5 min at 37 °C. The transport inhibition measurements were initiated by adding 50 μL of transport buffer containing the proper fluorescent substrate SR101 (0.5 μM, OATP1A2) or pyranine (10 μM for OATP1B1 or 20 μM for OATP1B3 and OATP2B1). After 10 min (OATP1A2), 15 min (OATP1B1 and OATP2B1), or 30 min (OATP1B3) incubation, the transport was terminated by washing the cells three times with ice-cold PBS. Regarding the individual OATP assays, we applied different incubation times to keep the substrate uptake in the linear range, , avoiding substrate depletion or saturation effects, as it is indispensable for the accurate assessment. Using an Enspire plate reader (PerkinElmer, Waltham, MA), the fluorescence was measured at excitation/emission wavelengths of 460/510 nm (pyranine) or 586/605 nm (SR101).
(§3) OATP-mediated transport was obtained by subtracting the activity of the mock control cells from the activity of the OATP-expressing cells. The transport activity (%) of the OATPs was calculated by comparing the fluorescence signal obtained in the absence of the compounds tested (set to 100%).

OATP2B1 [1] = biological target: T2, OATP2B1 (Homo sapiens, UniProt O94956); test: OATP2B1-mediated pyranine uptake in overexpressing A431 cells; assay type: cell-based
T2 construct: expressed in transfected cells; host or cells: A431
T2 sequence (O94956 1-709): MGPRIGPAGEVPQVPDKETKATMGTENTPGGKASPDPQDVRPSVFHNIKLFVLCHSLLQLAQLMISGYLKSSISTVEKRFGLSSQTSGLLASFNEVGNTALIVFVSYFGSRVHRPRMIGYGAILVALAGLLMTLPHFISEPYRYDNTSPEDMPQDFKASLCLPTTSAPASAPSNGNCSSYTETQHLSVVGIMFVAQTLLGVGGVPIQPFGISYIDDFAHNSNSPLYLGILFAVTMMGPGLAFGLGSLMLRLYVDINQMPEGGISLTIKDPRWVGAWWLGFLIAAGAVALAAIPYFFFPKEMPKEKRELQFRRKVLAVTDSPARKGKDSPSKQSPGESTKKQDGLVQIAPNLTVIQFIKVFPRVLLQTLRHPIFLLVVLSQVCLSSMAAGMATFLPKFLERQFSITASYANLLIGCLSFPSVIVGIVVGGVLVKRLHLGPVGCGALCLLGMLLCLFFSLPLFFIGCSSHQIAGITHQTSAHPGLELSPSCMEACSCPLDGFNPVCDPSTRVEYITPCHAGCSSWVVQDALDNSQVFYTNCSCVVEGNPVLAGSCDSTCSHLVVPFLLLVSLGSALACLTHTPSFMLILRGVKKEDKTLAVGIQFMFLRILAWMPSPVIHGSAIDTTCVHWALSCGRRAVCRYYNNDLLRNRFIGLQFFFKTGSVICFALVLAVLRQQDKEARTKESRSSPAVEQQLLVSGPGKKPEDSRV
Description: as §1, §2, §3

CYP3A4 = biological target: T3, CYP3A4 (Homo sapiens, UniProt P08684); parameters: method as in our previous study; settings: ref our previous study; cited from earlier work
T3 construct: purchased Merck

OATP2B1 [2] = biological target: T2, OATP2B1; parameters: method as in earlier report; settings: same experimental model; ref earlier report; cited from earlier work
[3] = 20 μM, pyranine substrate, A431 cells

T3 sequence (P08684 whole entry): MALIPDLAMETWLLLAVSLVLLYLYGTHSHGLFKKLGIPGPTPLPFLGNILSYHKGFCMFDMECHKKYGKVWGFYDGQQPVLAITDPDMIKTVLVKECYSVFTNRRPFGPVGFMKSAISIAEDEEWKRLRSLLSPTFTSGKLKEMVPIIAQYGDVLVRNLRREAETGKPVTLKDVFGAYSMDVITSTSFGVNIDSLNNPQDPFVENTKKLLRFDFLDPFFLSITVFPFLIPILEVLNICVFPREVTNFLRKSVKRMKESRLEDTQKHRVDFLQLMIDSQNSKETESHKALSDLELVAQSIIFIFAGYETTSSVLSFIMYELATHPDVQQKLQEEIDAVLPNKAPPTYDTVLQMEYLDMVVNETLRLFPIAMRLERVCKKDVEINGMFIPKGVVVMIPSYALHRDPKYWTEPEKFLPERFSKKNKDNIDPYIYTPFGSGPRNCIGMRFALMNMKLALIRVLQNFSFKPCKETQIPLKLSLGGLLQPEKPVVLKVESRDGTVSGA

## C[C@H]1CCCC(=O)CCC/C=C/c2cc(OS(=O)(=O)O)cc(O)c2C(=O)O1 [Z14S, zearalenone-14-sulfate]
OATP1B1
  IC50: 270 nM
OATP1B1; [3]
  decrease in OATP1B1 transport activity: 80–100%
OATP1B1; ratio of IC50 values vs ZEN
  stronger inhibition on OATP1B1 compared to ZEN: more than 30 fold
OATP2B1 [1]
  IC50: 340 nM
OATP2B1 [1]; 5 μM, pyranine substrate
  effect on OATP2B1-mediated dye uptake: completely abolished
OATP2B1 [1]; [3]
  decrease in OATP2B1 transport activity: 80–100%
OATP2B1 [1]; ratio of IC50 values vs ZEN
  stronger inhibition on OATP2B1 compared to ZEN: approximately 7 fold

## C[C@H]1CCCC(=O)CCC/C=C/c2cc(O)cc(O)c2C(=O)O1 [ZEN, Zearalenone]
CYP3A4
  IC50: 2000 nM
OATP2B1 [2]
  IC50: 2300 nM

## C[C@H]1CCCC(=O)CCC/C=C/c2cc(O[C@@H]3O[C@H](C(=O)O)[C@@H](O)[C@H](O)[C@H]3O)cc(O)c2C(=O)O1 [Z14GA, Zearalenone-14-glucuronide]
OATP1B1; pyranine 10 μM, 15 min, A431 cells, read-out: IC50 for OATP1B1
  IC50: > 20000 nM
OATP2B1 [1]; pyranine 20 μM, 15 min, A431 cells, read-out: IC50 for OATP2B1
  IC50: 1100 nM
